Source: ChEMBL document CHEMBL4613296 (ACS Med Chem Lett, 2020)
The source made the active and inactive calls. The calls are words filed in the database; no cut-off is given here.

Legend:
[1] = target: Rhodesain (Trypanosoma brucei rhodesiense) (UniProt Q95PM0); experiment: Inhibition of Trypanosoma brucei rhodesain using increasing concentration of Cbz-Phe-Arg-AMC as substrate incubated for 30 mins by fluorometric assay
[2] = test system: Trypanosoma brucei brucei; experiment: Antitrypanosomal activity against blood stage form of Trypanosoma brucei brucei 449 incubated for 24 hrs by ATPlite assay; format: functional, organism-based; conditions: Trypanosoma brucei, 449, 24 h
[3] = target: Rhodesain (Trypanosoma brucei rhodesiense) (UniProt Q95PM0); experiment: Inhibition of Trypanosoma brucei rhodesain assessed as combinational index measured at fraction affected value of 0.60 in presence of curcumin using Cbz-Phe-Arg-AMC as substrate incubated for 30 mins by fluorescence based assay
[4] = target: Rhodesain (Trypanosoma brucei rhodesiense, UniProt Q95PM0); experiment: Inhibition of Trypanosoma brucei rhodesain in presence of curcumin using Cbz-Phe-Arg-AMC as substrate incubated for 30 mins by fluorometric assay
Chain of Rhodesain (Q95PM0 whole entry): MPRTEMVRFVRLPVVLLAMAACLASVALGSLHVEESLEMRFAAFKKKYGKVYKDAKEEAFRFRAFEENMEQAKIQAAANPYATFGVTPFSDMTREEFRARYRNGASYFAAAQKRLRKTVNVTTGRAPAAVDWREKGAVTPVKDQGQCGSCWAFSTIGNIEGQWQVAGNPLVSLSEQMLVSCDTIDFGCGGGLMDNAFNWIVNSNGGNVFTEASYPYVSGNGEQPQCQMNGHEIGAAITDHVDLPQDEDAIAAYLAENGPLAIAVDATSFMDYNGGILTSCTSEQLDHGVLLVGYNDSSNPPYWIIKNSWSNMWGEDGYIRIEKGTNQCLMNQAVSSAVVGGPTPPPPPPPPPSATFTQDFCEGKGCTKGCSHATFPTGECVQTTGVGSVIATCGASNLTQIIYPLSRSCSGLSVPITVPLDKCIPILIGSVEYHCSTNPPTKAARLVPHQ

[5] = test system: Trypanosoma brucei brucei; experiment: Antitrypanosomal activity against blood stage form of Trypanosoma brucei brucei 449 in presence of curcumin incubated for 24 hrs by ATPlite assay; format: functional, organism-based; conditions: Trypanosoma brucei, 449, 24 h
[6] = target: Rhodesain (Trypanosoma brucei rhodesiense) (UniProt Q95PM0); experiment: Inhibition of Trypanosoma brucei rhodesain assessed as combinational index measured at fraction affected value of 0.90 in presence of curcumin using Cbz-Phe-Arg-AMC as substrate incubated for 30 mins by fluorescence based assay
[7] = target: Rhodesain (Trypanosoma brucei rhodesiense) (UniProt Q95PM0); experiment: Inhibition of Trypanosoma brucei rhodesain assessed as combinational index measured at fraction affected value of 0.50 in presence of curcumin using Cbz-Phe-Arg-AMC as substrate incubated for 30 mins by fluorescence based assay
[8] = target: Rhodesain (Trypanosoma brucei rhodesiense) (UniProt Q95PM0); experiment: Inhibition of Trypanosoma brucei rhodesain assessed as combinational index measured at fraction affected value of 0.80 in presence of curcumin using Cbz-Phe-Arg-AMC as substrate incubated for 30 mins by fluorescence based assay
[9] = target: Rhodesain (Trypanosoma brucei rhodesiense) (UniProt Q95PM0); experiment: Inhibition of Trypanosoma brucei rhodesain assessed as combinational index measured at fraction affected value of 0.10 in presence of curcumin using Cbz-Phe-Arg-AMC as substrate incubated for 30 mins by fluorescence based assay
[10] = target: Rhodesain (Trypanosoma brucei rhodesiense) (UniProt Q95PM0); experiment: Inhibition of Trypanosoma brucei rhodesain assessed as combinational index measured at fraction affected value of 0.40 in presence of curcumin using Cbz-Phe-Arg-AMC as substrate incubated for 30 mins by fluorescence based assay
[11] = target: Rhodesain (Trypanosoma brucei rhodesiense) (UniProt Q95PM0); experiment: Inhibition of Trypanosoma brucei rhodesain assessed as combinational index measured at fraction affected value of 0.20 in presence of curcumin using Cbz-Phe-Arg-AMC as substrate incubated for 30 mins by fluorescence based assay
[12] = target: Rhodesain (Trypanosoma brucei rhodesiense) (UniProt Q95PM0); experiment: Inhibition of Trypanosoma brucei rhodesain assessed as combinational index measured at fraction affected value of 0.70 in presence of curcumin using Cbz-Phe-Arg-AMC as substrate incubated for 30 mins by fluorescence based assay
[13] = target: Rhodesain (Trypanosoma brucei rhodesiense) (UniProt Q95PM0); experiment: Inhibition of Trypanosoma brucei rhodesain assessed as combinational index measured at fraction affected value of 0.30 in presence of curcumin using Cbz-Phe-Arg-AMC as substrate incubated for 30 mins by fluorescence based assay
[14] = target: Rhodesain (Trypanosoma brucei rhodesiense) (UniProt Q95PM0); experiment: Inhibition of Trypanosoma brucei rhodesain assessed as combinational index measured at fraction affected value of 0.99 in presence of curcumin using Cbz-Phe-Arg-AMC as substrate incubated for 30 mins by fluorescence based assay

Chain of Rhodesain (Trypanosoma brucei rhodesiense) (Q95PM0 1-450): as the sequence (Q95PM0 whole entry) above

Row | inhibition [1] | IC50 [2] | CI [3] | IC50 [4] | IC50 [5] | CI [6] | CI [7] | CI [8] | CI [9] | CI [10] | CI [11] | CI [12] | CI [13] | CI [14] | Compound
1 | inactive | 3.12 µM |  |  |  |  |  |  |  |  |  |  |  |  | COc1cc(/C=C/C(=O)CC(=O)/C=C/c2ccc(O)c(OC)c2)ccc1O [CURCUMIN]
2 | Active | 2.33 µM | 0.886 | 3.05 µM | 4.64 µM | 0.686 | 0.941 | 0.768 | 1.32 | 1 | 1.16 | 0.83 | 1.07 | 0.453 | CC(=O)/C=C/[C@H](CCc1ccccc1)NC(=O)[C@H](Cc1ccccc1)NC(=O)OCc1ccccc1
